According to patent publication US6326380A, “Thrombin receptor antagonists” (Schering Corporation, priority 2000, dated 2001):
Where two headings read alike, the source gives them in different places.

Key:
[1] = tested on: platelet aggregation (Whole Blood, haTRAP); assay: Ex-vivo Platelet Aggregation In Cynomolgus Whole Blood; set-up: species or system cynomolgus monkey
Description: Protocol For Ex-Vivo Platelet Aggregation In Cynomolgus Whole Blood Drug administration and blood collection:
Conscious chaired cynomolgus monkeys are allowed to equilibrate for 30 min. A needle catheter is inserted into a brachial vein for infusion of test drugs. Another needle catheter is inserted into the other brachial or saphenous vein and used for blood sampling. In those experiments where the compound is administered orally only one catheter is used. A baseline blood sample (1-2 ml) is collected in vacutainer tubes containing a thrombin inhibitor CVS 2139 (100 μg/0.1 ml saline) as an anticoaculant. The drug is then infused intravenously over a period of 30 min. Blood samples (1 ml) are collected at 5, 10, 20, 30 min during and 30, 60, 90 min after termination of the drug infusion. In PO experiments the animals are dosed with the drug using a gavage cannula. Blood samples are collected at 0, 30, 60, 90, 120, 180, 240, 300, 360 min after dosing. […]
A 0.5 ml blood sample is added to 0.5 ml of saline and warmed to 37° C. in a Chronolog whole blood aggregometer. […] The agonist (haTRAP) is added by an adjustable volume pipette (5-25 μl) and the aggregation curve is recorded for 10 minutes. Maximum aggregation in 6 minutes following agonist is the value recorded.

[2] = tested on: platelet aggregation (platelets, haTRAP or thrombin); assay: In vitro Platelet Aggregation Inhibition (PAI); assay type: cell-based; conditions: Homo sapiens, read-out: In vitro PAI IC50
Description: In vitro Platelet Aggregation Procedure:
Blood was obtained from healthy human subjects who were aspirin free for at least 7 days by venipuncture using ACD as anticoagulant. Platelet rich plasma was prepared by centrifugation at 100×g for 15 minutes at 15 deg C. Platelets were pelleted at 3000×g and washed twice in buffered saline containing 1 mM EGTA and 20 μg/ml apyrase to inhibit aggregation. Aggregation was performed at room temperature in buffered saline supplemented with 0.2 mg/ml human fibrinogen. Test compound and platelets were preincubated in 96-well flat-bottom plates for 60 minutes. Aggregation was initiated by adding 0.3 μM haTRAP or 0.1 U/ml thrombin and rapidly vortexing the mixture using a Lab Line Titer Plate Shaker (speed 7). Percent aggregation was monitored as increasing light transmittance at 405 nm in a Spectromax Plate Reader.

Thrombin receptor = molecular target: T1, Thrombin receptor (Homo sapiens, UniProt P25116); assay: In vitro Thrombin Receptor Antagonist Assay ([3H]haTRAP radioligand binding, platelet membranes); conditions: [3H]haTRAP 10 nM, read-out: IC50 (concentration at which a 50% inhibition of thrombin receptor was observed)
T1 construct: Platelet membranes were prepared using a modification of the method of Natarajan et al; tissue North Jersey Blood Center (East Orange, N.J.); host or cells: platelets (platelet concentrates), membranes
T1 sequence (P25116 22-425): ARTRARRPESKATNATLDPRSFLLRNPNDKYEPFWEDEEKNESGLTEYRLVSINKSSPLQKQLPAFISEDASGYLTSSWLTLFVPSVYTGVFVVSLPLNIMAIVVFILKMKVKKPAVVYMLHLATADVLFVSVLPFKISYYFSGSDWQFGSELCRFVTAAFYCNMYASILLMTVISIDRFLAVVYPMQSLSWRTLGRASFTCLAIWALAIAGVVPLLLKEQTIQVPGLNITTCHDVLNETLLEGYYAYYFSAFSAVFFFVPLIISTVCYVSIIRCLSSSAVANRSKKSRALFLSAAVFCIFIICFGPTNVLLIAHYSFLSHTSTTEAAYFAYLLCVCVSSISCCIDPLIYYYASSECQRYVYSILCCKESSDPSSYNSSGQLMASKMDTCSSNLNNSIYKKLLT
Description: In Vitro Testing Procedure for Thrombin Receptor Antagonists:
Preparation of [^3 H]haTRAP
The vessel was attached to the tritium line, frozen in liquid nitrogen and evacuated. […] At the completion of the reaction, the excess tritium was removed and the reacted peptide solution was diluted with DMF (0.5 ml) and filtered to remove the catalyst. The collected DMF solution of the crude peptide was diluted with water and freeze dried to remove the labile tritium. The solid peptide was redissolved in water and the freeze drying process repeated. The tritiated peptide ([^3 H]haTRAP) was dissolved in 0.5 ml of 0.1% aqueous TFA and purified by HPLC using the following conditions: column, Vydac C18, 25 cm×9.4 mm I.D.; mobile phase, (A) 0.1% TFA in water, (B) 0.1% TFA in CH3 CN; gradient, (A/B) from 100/0 to 40/60 over 30 min; flow rate, 5 ml/min; detection, UV at 215 nm.
Preparation of platelet membranes
All steps were carried out at 4° C. under approved biohazard safety conditions. Platelets were centrifuged at 100×g for 20 minutes at 4° C. to remove red cells. The supernatants were decanted and centrifuged at 3000×g for 15 minutes to pellet platelets. Platelets were resuspended in 10 mM Tris-HCl, pH 7.5,150 mM NaCl, 5 mM EDTA, to a total volume of 200 ml and centrifuged at 4400×g for 10 minutes. This step was repeated two additional times. Platelets were resuspended in 5 mM Tris-HCl, pH 7.5, 5 mM EDTA to a final volume of approximately 30 ml and were homogenized with 20 strokes in a Dounce homogenizer. Membranes were pelleted at 41,000×g, resuspended in 40-50 ml 20 mM Tris-HCl, pH 7.5,1 mM EDTA, 0.1 mM dithiothreitol, and 10 ml aliquots were frozen in liquid N2 and stored at -80° C. To complete membrane preparation, aliquots were thawed, pooled, and homogenized with 5 strokes of a Dounce homogenizer. Membranes were pelleted and washed 3 times in 10 mM triethanolamine-HCl, pH 7.4, 5 mM EDTA, and resuspended in 20-25 ml 50 mM Tris-HCl, pH 7.5, 10 mM MgCl2, 1 mM EGTA, and 1% DMSO. Aliquots of membranes were frozen in liquid N2 and stored at -80° C.
High Throughput Thrombin Receptor Radioligand Binding Assay
Stock solutions (10 mM in 100% DMSO) of test compounds were further diluted in 100% DMSO. Unless otherwise indicated, 10 μl of diluted compound solutions and 90 μl of radioligand (a final concentration of 10 nM in 5% DMSO) were added to each well, and the reaction was started by the addition of 100 μl of membranes (40 μg protein/well). […] Compounds were tested at three concentrations (0.1, 1 and 10 μM). The plates were covered and vortex-mixed gently on a Lab-Line Titer Plate Shaker for 1 hour at room temperature. Packard UniFilter GF/C filter plates were soaked for at least 1 hour in 0.1% polyethyleneimine. The incubated membranes were harvested using a Packard FilterMate Universal Harvester and were rapidly washed four times with 300 μl ice cold 50 mM Tris-HCl, pH 7.5, 10 mM MgCl2, 1 mM EGTA. MicroScint 20 scintillation cocktail (25 μl) was added to each well, and the plates were counted in a Packard TopCount Microplate Scintillation Counter. The specific binding was defined as the total binding minus the nonspecific binding observed in the presence of excess (50 μM) unlabeled haTRAP. The % inhibition by a compound of [^3 H]haTRAP binding to thrombin receptors was calculated from the following relationship: […]
A(pF-F)R(ChA)(hR)Y--NH2 and A(pF-F)R(ChA)(hR)(I2 -Y)--NH2, were custom synthesized by AnaSpec Inc. (San Jose, Calif.). […] The gas was subsequently loaded and stored on an IN/US Systems Inc. Trisorber.

[3] = 0.3 μM haTRAP or 0.1 U/ml thrombin, 60 min preincubation

Row | Structure (SMILES) | IC50 (Thrombin receptor) [nM] | further results
1 | C[C@H]1OC(=O)[C@@H]2C[C@@H]3CCCC[C@H]3[C@H](/C=C/c3ccc(-c4cccc(C(F)(F)F)c4)cn3)[C@H]12 [Example 4, (+)-(3R,3aS,4S,4aR,8aS,9aR)-Decahydro-4-[(E)-2-[5-[3-(trifluoromethyl)phenyl]-2-pyridinyl]ethenyl]-3-Methylnaphtho-[2,3-c]furan-1(3H)-one] | – | Ex-vivo C. Monkey Whole Blood PAI ([1]; 3 mpk, oral in betahydroxypropylcyclodextrin as cosolvent): 100%; IC50 [2]: 67 nM
2 | CNC(=O)C1Cc2ccccc2C(C=Cc2ccc(-c3cccc(C(F)(F)F)c3)cn2)C1CO (stereo not shown) [Example 7] | 1140 | –
3 | CCc1cccc(/C=C/[C@H]2[C@@H]3CCCC[C@H]3C[C@H]3C(=O)O[C@H](C)[C@@H]23)n1 [Example 8, (+)-(3R,3aS,4S,4aR,8aS,9aR)-Decahydro-4-[(E)-2-(6-ethyl-2-pyridinyl)ethenyl]-3-methylnaphtho[2,3-c]furan-1(3H)-one] | – | Ex-vivo C. Monkey Whole Blood PAI ([1]; 10 mpk, i.v. infusion over 30 min. in 5% dextrose): 100%; IC50 [2]: 300 nM
4 | C[C@H]1OC(=O)[C@@H]2C[C@@H]3CCCC[C@H]3[C@H](/C=C/c3ccc(-c4cccc5c4OCO5)cn3)[C@H]12 [Example 1DR] | – | IC50 [2, 3]: 100 nM

Continued, in another order:

Row | IC50 (Thrombin receptor) [nM] | Structure (SMILES) | further results
5 | 14 | Cc1ccccc1-c1ccc(/C=C/[C@H]2[C@@H]3CCCC[C@H]3C[C@H]3C(=O)O[C@H](C)[C@@H]23)nc1 [Example 1DK] | –
6 | 350 | Cc1cccc(/C=C/[C@H]2[C@H]3[C@H](C)OC(=O)[C@H]3C=C3CCCC[C@@H]32)n1 [Example 2E] | –
7 | 4 | C[C@H]1OC(=O)[C@@H]2C[C@@H]3CCCC[C@H]3[C@H](/C=C/c3ccc(-c4cc(C(F)(F)F)cc(C(F)(F)F)c4)cn3)[C@H]12 [Example 1ES] | –
8 | 6 | C[C@H]1OC(=O)[C@@H]2C[C@@H]3CCCC[C@H]3[C@H](/C=C/c3ccc4cc(O)ccc4n3)[C@H]12 [Example 1BN] | IC50 [2, 3]: 100 to 300 nM
9 | 1600 | Cc1cc(C)nc(/C=C/[C@@H]2[C@H]3CCCC[C@@H]3C[C@@H]3C(=O)O[C@@H](C)[C@H]23)c1 [Example 1A] | –
10 | 10 | O=C1OCC2C1Cc1ccccc1C2C=Cc1ccc(-c2cccc(C(F)(F)F)c2)cn1 (stereo not shown) [Example 3K] | –
